Reference: patent US20050164951A1, “Inhibitors for the soluble epoxide hydrolase” (The Regents of the University of California, priority 2003, published 2005)
Like-named read-outs stand apart in the source and are kept apart here.

Experiments:
[1] = Blood concentration after oral administration of 950 and AUDA-nBE, human pharmacokinetic profile; assay type: in vivo; conditions: for pharmacokinetics: see FIGS. 15-27
Method: FIG. 16 provides a sample preparation procedure for a pharmacokinetic study. A 5 μl whole blood sample was drawn into a capillary at a specific time point, each sample was extracted and anaylzed by LC/MS-MS. […] AUDA is the active metabolite of AUDA-nBE. […] 0.05 mg/kg. (B). 0.1 mg/kg. […] The compounds were administered at the same time in the same formulation. […] 21 mg (0.3 mg/kg) 950 and AUDA-nBE were orally administrated with starch. (B). 7 mg (0.1 mg/kg) formulated 950 and AUDA-NBE were taken with (HPMC, starch and lactose). (C). […] 950 with HPMC and Starch. (B). 950 in lactose and HPMC. […] HPMC forms a gel which slowly erodes; lactose enhances erosion at it moves through the gut and starch retards it. These formulations are combined, ball milled, and then placed in ‘0’ capsule and not compressed.

mouse sEH = target: T1, mouse sEH (Mus musculus, UniProt P34914); assay: Inhibition of recombinant mouse sEH, IC50 assay with 4-nitrophenyl-trans-2,3-epoxy-3-phenylpropyl carbonate as substrate; assay type: biochemical; conditions: read-out: IC50 (μM) Mouse sEH
T1 construct: made in house; host or cells: baculovirus expression system
T1 sequence (P34914 1-554): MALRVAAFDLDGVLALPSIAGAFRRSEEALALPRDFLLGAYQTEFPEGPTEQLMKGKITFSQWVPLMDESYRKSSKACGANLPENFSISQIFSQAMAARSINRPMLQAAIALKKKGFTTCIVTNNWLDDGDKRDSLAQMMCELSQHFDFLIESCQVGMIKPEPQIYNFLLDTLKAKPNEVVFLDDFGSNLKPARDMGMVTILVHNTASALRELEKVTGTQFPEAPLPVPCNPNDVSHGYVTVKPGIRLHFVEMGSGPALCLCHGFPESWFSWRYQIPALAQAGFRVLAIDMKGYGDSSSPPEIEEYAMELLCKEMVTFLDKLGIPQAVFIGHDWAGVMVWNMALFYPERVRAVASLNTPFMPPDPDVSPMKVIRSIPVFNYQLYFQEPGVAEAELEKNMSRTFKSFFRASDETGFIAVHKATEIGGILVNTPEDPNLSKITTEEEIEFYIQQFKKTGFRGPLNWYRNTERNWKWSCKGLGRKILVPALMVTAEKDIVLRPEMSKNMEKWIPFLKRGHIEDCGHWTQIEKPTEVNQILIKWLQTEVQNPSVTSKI
Method: (§1) Assays were performed in triplicate. […] The curve was generated from at least three separate runs, each in triplicate, to obtain the standard deviation (SD) given in Table 1 thru Table 4.

human sEH = target: T2, human sEH (Homo sapiens, UniProt P34913); assay: Inhibition of recombinant human sEH, IC50 assay with 4-nitrophenyl-trans-2,3-epoxy-3-phenylpropyl carbonate as substrate; assay type: biochemical
T2 construct: made in house; host or cells: baculovirus expression system
T2 sequence (P34913 1-555): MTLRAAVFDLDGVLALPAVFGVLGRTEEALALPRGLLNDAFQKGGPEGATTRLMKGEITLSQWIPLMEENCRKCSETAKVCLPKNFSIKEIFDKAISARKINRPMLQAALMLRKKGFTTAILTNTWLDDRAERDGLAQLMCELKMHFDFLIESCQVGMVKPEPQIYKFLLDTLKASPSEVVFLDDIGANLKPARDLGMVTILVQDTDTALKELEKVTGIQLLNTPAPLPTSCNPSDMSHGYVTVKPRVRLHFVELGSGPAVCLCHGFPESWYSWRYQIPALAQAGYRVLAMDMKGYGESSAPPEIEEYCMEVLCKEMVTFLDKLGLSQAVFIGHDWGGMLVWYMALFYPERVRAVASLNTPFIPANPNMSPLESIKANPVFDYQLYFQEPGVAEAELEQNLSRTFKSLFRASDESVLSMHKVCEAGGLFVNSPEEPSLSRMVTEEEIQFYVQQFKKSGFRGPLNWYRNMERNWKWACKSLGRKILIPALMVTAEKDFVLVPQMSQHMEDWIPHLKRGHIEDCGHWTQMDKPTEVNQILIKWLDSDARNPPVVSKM
Method: as §1

mouse and human sEH = assay: sEH IC50 assay, comparisons of the text made for both enzymes or without naming the enzyme; assay type: biochemical
Method: as §1

Water solubility = assay type: physicochemical; conditions: for water solubility: compared with non-functionalized lipophilic inhibitors (791, 790)
rat sEH = target: T3, rat sEH (Rattus norvegicus, UniProt P80299); assay: Relative turnover of arachidonic acid epoxides by rat sEH; assay type: biochemical; conditions: for relative substrate turnover of the epoxy arachidonates: 1:1:2 mixture of 8,9-, 11,12-, and 14,15-EET hydrolyzed to 30% by rat renal cortex cytosol; for Relative EET Turnover: Table 20, arachidonic acid epoxides with the rat sEH
T3 construct: was hydrolyzed to 30% by rat renal cortex cytosol; from tissue; host or cells: rat renal cortex cytosol
T3 sequence (P80299 1-554): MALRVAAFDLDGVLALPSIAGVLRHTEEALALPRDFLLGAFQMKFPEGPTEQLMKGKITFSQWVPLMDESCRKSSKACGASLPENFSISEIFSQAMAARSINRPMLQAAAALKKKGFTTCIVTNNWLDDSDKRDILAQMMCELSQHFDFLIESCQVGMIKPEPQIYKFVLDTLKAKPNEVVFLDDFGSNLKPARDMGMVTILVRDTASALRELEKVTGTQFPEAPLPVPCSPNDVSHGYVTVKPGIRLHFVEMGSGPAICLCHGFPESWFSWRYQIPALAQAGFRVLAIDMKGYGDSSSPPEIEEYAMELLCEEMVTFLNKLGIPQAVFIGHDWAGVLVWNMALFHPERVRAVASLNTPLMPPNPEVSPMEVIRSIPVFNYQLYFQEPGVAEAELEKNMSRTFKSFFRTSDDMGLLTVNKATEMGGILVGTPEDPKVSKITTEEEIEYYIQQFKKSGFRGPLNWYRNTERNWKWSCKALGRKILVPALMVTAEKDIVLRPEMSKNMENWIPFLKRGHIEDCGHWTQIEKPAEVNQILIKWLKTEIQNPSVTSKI
Method: For epoxy fatty acid hydrolysis, the soluble epoxide hydrolase prefers substrates with epoxide moieties that are more distant from the carboxyl terminal. Specifically the substrate preference decreases in the order of 14,15-EET >11,12-EET >8,9-EET >>>5,6-EET for the epoxides of arachidonic acid. Independently, the relative substrate turnover of the epoxy arachidonates were calculated at 0.1:8.1:14.3 when a 1:1:2 mixture of 8,9-, 11,12-, and 14,15-EET fatty acid was hydrolyzed to 30% by rat renal cortex cytosol. By considering the primary pharmacophore of the urea to be a transition-state analog of epoxide hydrolysis, preferred inhibitors have now been developed which incorporate long aliphatic acids. These compounds are better substrate and transition state mimics than those incorporating shorter aliphatic acids. Accordingly, optimal soluble epoxide hydrolase inhibitors can be obtained by producing compounds with aliphatic acid substituents (i.e. a tertiary pharmacophore) which are separated from the primary pharmacophore by an equivalent distance as the terminal acid is separated from the epoxide in optimal substrates. Within the enzyme active site, epoxy fatty acids have been predicted to exist in an extended or pseudo-linear confirmation. Therefore, both the epoxy fatty acids and the aliphatic acid containing urea structures were approximated as two dimensional linear representations and measurements were made on each species. The critical measurements taken were distances (in angstroms) from the carboxylate hydroxyl to the urea carbonyl and the urea nitrogens.

[2] = Table 2, […] enzyme, 5 min preincubation, pH 7.4, 30° C., means ± SD
[3] = Table 2, […] enzyme, 5 min preincubation, pH 7.4, 30° C., means ± SD, read-out: IC50 (μM) Human sEH

## CCCC(C)COCCCCCNC(=O)NC12CC3CC(CC(C3)C1)C2 (stereo not shown) [Compound 955]
[1]; FIG. 27, after oral 950
  detection in blood: not detected at any time point

## CCCCCOC(=O)CCCNC(=O)NC1CCCCC1 [Compound 772, 1-Cyclohexyl-3-(3-pentoxycarbonylpropyl)urea]
Mouse sEH; [2]
  IC50: 0.05 ± 0.01 µM
Human sEH; [3]
  IC50: 1.02 ± 0.05 µM
Mouse and human sEH
  increase of inhibitor potency over the 3-chlorophenyl analog (767): 10 fold
Water solubility
  water solubility: increases their water solubility

## CCCCCOC(=O)CCCNC(=O)Nc1cccc(Cl)c1 [Compound 767, 1-(3-chlorophenyl)-3-(3-pentoxycarbonylpropyl)urea]
Mouse sEH; Table 3, […] enzyme, 5 min preincubation, pH 7.4, 30° C., means ± SD
  IC50: 0.37 ± 0.04 µM
Human sEH; Table 3, […] enzyme, 5 min preincubation, pH 7.4, 30° C., means ± SD, read-out: IC50 (μM) Human sEH
  IC50: 2.1 ± 0.07 µM
Mouse and human sEH; methylene carbon left versus right of the carbonyl
  better inhibition than 761: 20 fold

## CCCCCC1OC1C/C=C\C/C=C\C/C=C\CCCC(=O)O (stereo not shown) [14,15-EET]
Rat sEH
  relative substrate turnover of the epoxy arachidonates: 14.3
  Relative EET Turnover: 14.3

## CCCCC/C=C\C[C@H]1O[C@H]1C/C=C\C/C=C\CCCC(=O)O [11,12-EET]
Rat sEH
  relative substrate turnover of the epoxy arachidonates: 8.1
  Relative EET Turnover: 8.1

## CCCCC/C=C\C/C=C\CC1OC1C/C=C\CCCC(=O)O (stereo not shown) [8,9-EET]
Rat sEH
  relative substrate turnover of the epoxy arachidonates: 0.1
  Relative EET Turnover: 1

## COCCOCCOCCOCCCCCNC(=O)NC12CC3CC(CC(C3)C1)C2 [Compound 952]
[1]
  pharmacokinetics: improved pharmacokinetics

## COCCOCCCCCNC(=O)NC12CC3CC(CC(C3)C1)C2 [Compound 908]
Mouse sEH; Table 7, established protocols
  IC50: 0.05 ± 0.01 µM
Human sEH; Table 7, established protocols, read-out: IC50 (μM) Human sEH
  IC50: 0.16 ± 0.01 µM
Water solubility
  water solubility: increased water solubility
[1]
  pharmacokinetics: improved pharmacokinetics

## CCCCCOC(=O)CCCNC(=O)NC12CC3CC(CC(C3)C1)C2 [Compound 789]
Mouse sEH; [2]
  IC50: 0.05 ± 0.01 µM
Human sEH; [3]
  IC50: 0.17 ± 0.01 µM
Mouse and human sEH
  increase of inhibitor potency over the 3-chlorophenyl analog (767): 10 fold
Water solubility; 772 vs. 789, 791 vs. 790, 297 vs. 686
  solubility relative to the corresponding cyclohexyl derivative: approximately 2 x
Water solubility
  water solubility: increases their water solubility

## COC(=O)CCCNC(=O)NC1CCCCC1 [Compound 774]
Mouse sEH; Table 1, 0.12 μM enzyme, 5 min preincubation, pH 7.4, 30° C., [S] = 40 μM, means ± SD of three experiments
  IC50: 0.33 ± 0.03 µM
Human sEH
  IC50: 6.2 ± 0.5 µM
Mouse and human sEH; for both enzymes
  fold higher activity than the esters of acetic and propanoic acids (549 and 635): 8-100 fold

## CCCCC/C=C\C/C=C\C/C=C\CC1OC1CCCC(=O)O (stereo not shown) [5,6-EET]
Rat sEH
  Relative EET Turnover: 0.1
